Test results from patent US20230190736A1, “SMALL MOLECULE THERAPEUTICS FOR THE TREATMENT OF VIRAL INFECTIONS” (priority 2020, published 2023).
Where two headings read alike, the source gives them in different places.

Experiments:
Type in all cases: cell-based
[1] = test system: SARS-CoV-2; test: microbe, parasite or virus in culture; settings: Severe acute respiratory syndrome coronavirus 2; secondary screen, doses 2.5, 25, 250 and 500 nM, immunofluorescent assay; read-out: IC50 anti SARS-CoV-2 activity
[2] = test system: human lung stem cell derived Air-liquid interface (ALI) cells; test: Cell Titer glo viability assay in air-liquid interface (ALI) cultures; settings: up to 50 μM, 48 hours post treatment
Protocol: Series 1 and 2 are the values from independent wells.
Berzosertib was tested in a primary human lung tissue culture system consisting of mucociliary air-liquid interface (ALI) cultures derived from primary human proximal airway basal stem cells (ABSCs). 24-well 6.5 mm trans-wells with […] polyester membrane inserts were used for culturing ALI cells. 500 μl ALI media (PneumaCult-ALI Medium, […] Technologies) was used in the basal chamber for ALI cultures and cells were cultured at 37° C. with 5% CO2. […] Control cells were treated with the solvent DMSO. 48 hours post drug treatment, the cells were subjected to viability assay using Cell Titer glo kit.

[3] = test system: SARS-CoV-2; test: microbe, parasite or virus in culture
[4] = test system: SARS-CoV-2; settings: Compound A 50 nM, Compound B 50 nM; higher is better
[5] = test system: SARS-CoV-2; test: mTORC1 inhibition of SARS-CoV-2 replication in Vero cells (fluorescence microscopy); settings: 25 nM, 72 hours
[6] = test system: SARS-CoV-2; settings: 10 um, 1 hour pretreatment, MOI 1, 48 hpi

Question: Which results are given for `CNCc1ccc(-c2cc(-c3nc(-c4ccc(S(=O)(=O)C(C)C)cc4)cnc3N)on2)cc1` [Berzosertib]?
Answer: IC50 [1]: 25 nM; effect on cell viability [2]: did not have any deleterious effect on cell viability; effect on cell viability ([2]; listed as berzosertib): non-toxic and safe; inhibition of virus positive cells [3]: over 70%; IC50 ([3]; Severe acute respiratory syndrome coronavirus 2, read-out: IC50 inhibiting SARS-CoV-2 determined by RTQPCR): 40 nM

Question: For `COc1ccc(CC(C)NCC(O)c2ccc(O)c(NC=O)c2)cc1` (stereo not drawn) [Empty-Formoterol, Formoterol], which “Cell Number: Cell Nuclei Counts” value [4] is on record?
Answer: Its value is 8390.

Question: How did the “Cell Number: Cell Nuclei Counts” value [4] turn out when `OCc1cc(C(O)CNCCCCCCOCCCCc2ccccc2)ccc1O` (stereo not drawn) [Empty-Salmeterol, Salmeterol] was run?
Answer: Its value is 8193.

Question: `Cc1cn(-c2cc(NC(=O)c3ccc(C)c(Nc4nccc(-c5cccnc5)n4)c3)cc(C(F)(F)F)c2)cn1` [Nilotinib] was tested. Which IC50 [1] did it give?
Answer: Its IC50 is 250 to 500 nM.

Question: With `CNC(=O)c1cccc(-c2ccc3c(N4CCOC[C@@H]4C)nc(N4CCOC[C@@H]4C)nc3n2)c1` [Vistusertib] as the compound, how does the IC50 [1] read?
Answer: The IC50 was 25 nM.

Question: What about the “presence of viral dsRNA” value [5] of the same compound?
Answer: Its value is “almost completely abolished”.

Question: `CCN(CCO)CCCC(C)Nc1ccnc2cc(Cl)ccc12` (stereo not drawn) [hydroxychloroquine] was tested. Which “inhibition of SARS-CoV-2 infection (dsRNA immunostaining)” value [6] did it give?
Answer: The value was “efficiently inhibited SARS-CoV-2 infection”.

Question: What about the “inhibition of SARS-CoV-2 infection (dsRNA immunostaining)” value ([6]; listed as HQ) of the same compound?
Answer: The value was “effectively blocked SARS-CoV-2 infection”.
